Results reported in US7232835B2, “3,6-Disubstituted azabicyclo derivatives as muscarinic receptor antagonists” (Ranbaxy Laboratories Limited, priority 2002, dated 2007).
Read-outs that look alike come from different tables or passages of the source.

Columns and labels:
M2 muscarinic receptor = target: T1, M2 muscarinic receptor (Rattus norvegicus, UniProt P10980); test: [3H]-N-methylscopolamine radioligand binding assay, rat heart membranes
T1 construct: Submandibular glands and heart were isolated and placed in ice cold homogenising buffer; from tissue; host or cells: rat heart membrane homogenate
T1 sequence (P10980 1-466): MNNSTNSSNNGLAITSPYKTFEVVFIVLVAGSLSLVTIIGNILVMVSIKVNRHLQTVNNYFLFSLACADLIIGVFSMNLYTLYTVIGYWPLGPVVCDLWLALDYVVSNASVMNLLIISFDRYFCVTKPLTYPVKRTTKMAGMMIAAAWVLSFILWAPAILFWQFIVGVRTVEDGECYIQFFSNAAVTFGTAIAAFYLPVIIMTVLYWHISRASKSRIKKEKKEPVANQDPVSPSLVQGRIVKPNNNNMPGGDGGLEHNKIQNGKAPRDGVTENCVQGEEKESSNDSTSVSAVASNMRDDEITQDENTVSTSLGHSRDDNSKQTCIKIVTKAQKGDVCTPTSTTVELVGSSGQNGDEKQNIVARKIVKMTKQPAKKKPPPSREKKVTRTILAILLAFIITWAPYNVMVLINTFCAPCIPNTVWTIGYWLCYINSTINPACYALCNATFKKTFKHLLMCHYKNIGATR

isolated rat bladder = test: tissue or blood; type: cell-based; settings: rat bladder strips, antagonism of carbachol contraction
M3 muscarinic receptor = target: T2, M3 muscarinic receptor (Rattus norvegicus, UniProt P08483); test: [3H]-N-methylscopolamine radioligand binding assay, rat submandibular gland membranes; set-up: Receptor Binding Assay Selectivity: reference not given here
T2 construct: Submandibular glands and heart were isolated and placed in ice cold homogenising buffer; from tissue; host or cells: rat submandibular gland membrane homogenate

[1] = Table II, rat heart, [3H]NMS, read-out: Receptor Binding Assay Ki (nM) M2
[2] = Table III, rat heart, [3H]NMS, read-out: M2 Ki (nm)
[3] = Table III, rat heart, [3H]NMS, read-out: M2 pKi (converted)
[4] = Table II, read-out: Functional Assay KB
[5] = Table III, read-out: Rat Bladder pKB (converted)
[6] = Table II, rat submandibular gland, [3H]NMS, read-out: Receptor Binding Assay Ki (nM) M 3
[7] = Table III, rat submandibular gland, [3H]NMS, read-out: M3 Ki (nm)
[8] = Table III, rat submandibular gland, [3H]NMS, read-out: M3 Pki (converted)

T2 sequence (P08483 whole entry): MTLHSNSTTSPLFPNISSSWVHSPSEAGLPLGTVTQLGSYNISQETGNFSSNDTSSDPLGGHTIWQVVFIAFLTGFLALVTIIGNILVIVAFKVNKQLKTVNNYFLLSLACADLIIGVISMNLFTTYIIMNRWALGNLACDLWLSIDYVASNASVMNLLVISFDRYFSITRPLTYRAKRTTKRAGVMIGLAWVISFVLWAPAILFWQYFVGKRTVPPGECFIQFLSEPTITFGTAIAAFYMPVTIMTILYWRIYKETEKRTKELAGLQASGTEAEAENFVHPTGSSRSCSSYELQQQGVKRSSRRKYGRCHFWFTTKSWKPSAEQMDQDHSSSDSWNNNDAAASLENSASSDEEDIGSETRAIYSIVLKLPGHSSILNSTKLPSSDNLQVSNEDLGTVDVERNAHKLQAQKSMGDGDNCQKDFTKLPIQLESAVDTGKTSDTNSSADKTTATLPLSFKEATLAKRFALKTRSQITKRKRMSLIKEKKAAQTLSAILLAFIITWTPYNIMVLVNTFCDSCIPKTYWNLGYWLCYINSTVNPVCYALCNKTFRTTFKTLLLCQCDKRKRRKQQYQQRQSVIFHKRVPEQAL

Row | Structure (SMILES) | Ki (M2 muscarinic receptor; [2]) [nM] | Kb (isolated rat bladder; [5]) [µM] | Ki (M3 muscarinic receptor; [7]) [nM] | other results
1 | CC(C)=CCCN1CC2C(C1)C2NC(=O)C(O)(c1ccccc1)C1CCCC1 (stereo not drawn) [Compound No. 65, (1α,5α,6α)-6-N-(3-azabicyclo[3.1.0]hexyl-3-(4-methyl-3-pentenyl))-2-cyclopentyl-2-hydroxy-2-phenyl acetamide] | 1370 | 0.00398 | 33 | Ki (M2 muscarinic receptor; [1]): 1370 nM; Ki (M2 muscarinic receptor; [3]): 1350 nM; Kb (isolated rat bladder; [4]): 0.004 µM; Ki (M3 muscarinic receptor; [6]): 33 nM; Receptor Binding Assay Selectivity (M3 muscarinic receptor; Table II, ratio M2 Ki / M3 Ki): 41.52; Ki (M3 muscarinic receptor; [8]): 29.5 nM
2 | O=C(NC1C2CN(Cc3ccccc3)CC21)C(O)(c1ccccc1)C1CCCCCC1 (stereo not drawn) [Compound No. 72, (1α,5α,6α)-6-N-(3-azabicyclo[3.1.0]hexyl-3-benzyl)-2-cycloheptyl-2-hydroxy-2-phenyl acetamide] |  | 0.0661 |  | Ki (M2 muscarinic receptor; M2 Ki (nm)): 1530 nM; Ki (M3 muscarinic receptor; [8]): 20.9 nM
3 | O=C(N[C@H]1[C@@H]2CN(CCc3ccc4c(c3)OCO4)C[C@@H]21)[C@](O)(c1ccccc1)C1CCCC1 [Compound No. 82, (2R)-(1α,5α,6α)-6-N-(3-azabicyclo[3.1.0]hexyl-3-(3,4-methylenedioxyphenyl)ethyl)-2-cyclopentyl-2-hydroxy-2-phenyl acetamide] | 646 | 0.000759 |  | Ki (M2 muscarinic receptor; [1]): 646 nM; Kb (isolated rat bladder; [4]): 0.00912 µM; Receptor Binding Assay Selectivity (M3 muscarinic receptor): 5; Ki (M3 muscarinic receptor; M3 Ki (nm)): 11.7 nM; Ki (M3 muscarinic receptor; Receptor Binding Assay Ki (nM) M 3): 11.7 nM
4 | CC(C)=CCCN1C[C@@H]2[C@H](C1)[C@H]2NC(=O)C(O)(c1ccccc1)C1CCCCC1 (stereo partly drawn) [Compound No. 41, (1α,5α,6α)-6-N-(3-azabicyclo[3.1.0]hexyl-3-(4-methyl-3-pentenyl))-2-cyclohexyl-2-hydroxy-2-phenyl acetamide] | 2940 | 0.0204 | 47 | Ki (M2 muscarinic receptor; [1]): 2940 nM; Kb (isolated rat bladder; [4]): 0.0324 µM; Ki (M3 muscarinic receptor; [6]): 47 nM; Receptor Binding Assay Selectivity (M3 muscarinic receptor; Table II, ratio M2 Ki / M3 Ki): 62.64
5 | C#CCN1CC2C(C1)C2NC(=O)C(O)(c1ccccc1)C1CCCCC1 (stereo not drawn) [Compound No. 35, (1α,5α,6α)-6-N-(3-azabicyclo[3.1.0]hexyl-3-(2-propargyl))-2-cyclohexyl-2-hydroxy-2-phenyl acetamide] | 1180 | 0.0245 | 429 | Ki (M2 muscarinic receptor; [3]): > 1000 nM
6 | COc1ccc(C(O)(C(=O)NC2C3CN(CCC=C(C)C)CC32)C2CCCCC2)cc1 (stereo not drawn) [Compound No. 57, (1α,5α,6α)-6-N-(3-azabicyclo[3.1.0]hexyl-3-(4-methyl-3-pentenyl))-2-cyclohexyl-2-hydroxy-2-(4-methoxyphenyl)acetamide] | > 1000 | 1.86 | 240 | 
7 | O=C(N[C@H]1[C@@H]2CN(Cc3ccccc3)C[C@@H]21)C(O)(c1ccccc1)C1CCCC1 (stereo partly drawn) [Compound No. 64] | 3000 | 0.0275 |  | Ki (M2 muscarinic receptor; [3]): 2510 nM; Ki (M3 muscarinic receptor): 68 nM
8 | O=C(N[C@H]1[C@@H]2CN(Cc3ccccc3)C[C@@H]21)C(O)(c1ccccc1)C1CCCCC1 (stereo partly drawn) [Compound No. 22, (1α,5α,6α)-6-N-(3-azabicyclo[3.1.0]hexyl-3-benzyl)-2-cyclohexyl-2-hydroxy-2-phenyl acetamide] |  | 0.0269 | 94 | Ki (M2 muscarinic receptor; M2 Ki (nm)): 2260 nM; Ki (M2 muscarinic receptor; Receptor Binding Assay Ki (nM) M2): 2260 nM; Kb (isolated rat bladder; [4]): 0.0275 µM; Receptor Binding Assay Selectivity (M3 muscarinic receptor): 24.07; Ki (M3 muscarinic receptor; [6]): 94 nM
9 | Cc1ccc(S(=O)(=O)NC(=O)N2C[C@@H]3[C@H](C2)[C@H]3NC(=O)C(O)(c2ccccc2)C2CCCCC2)cc1 (stereo partly drawn) [Compound No. 49, (1α,5α,6α)-6-N-(3-azabicyclo[3.1.0]hexyl-3-(4-methylphenyl-1-sulphonamide)urea)-2-cyclohexyl-2-hydroxy-2-phenyl acetamide] | > 1000 | 0.631 | 1000 | 
10 | O=C(N[C@H]1[C@@H]2CN(Cc3ccc4c(c3)OCO4)C[C@@H]21)C(O)(c1ccccc1)C1CCCCC1 (stereo partly drawn) [Compound No. 42, (1α,5α,6α)-6-N-(3-azabicyclo[3.1.0]hexyl-3-(3,4-methylenedioxybenzyl))-2-cyclohexyl-2-hydroxy-2-phenyl acetamide] | 2200 | 0.0759 | 55 | Ki (M3 muscarinic receptor; [8]): 56.2 nM
11 | O=C(NC1C2CN(Cc3c(F)cccc3F)CC21)C(O)(c1ccccc1)C1CCCCC1 (stereo not drawn) [Compound No. 25, (1α,5α,6α)-6-N-(3-azabicyclo[3.1.0]hexyl-3-(2,6-difluorobenzyl))-2-cyclohexyl-2-hydroxy-2-phenyl acetamide] | > 1000 | 0.288 | 1700 | 
12 | CC(C)=CCCN1C[C@@H]2[C@H](C1)[C@H]2NC(=O)[C@](O)(c1ccccc1)C1CCCC1 [Compound No. 81, (2R)-(1α,5α,6α)-6-N-(3-azabicyclo[3.1.0]hexyl-3-(4-methyl-3-pentenyl))-2-cyclopentyl-2-hydroxy-2-phenyl acetamide] | 564 | 0.0112 | 12.4 | Ki (M2 muscarinic receptor; [1]): 564 nM; Ki (M2 muscarinic receptor; [3]): 525 nM; Kb (isolated rat bladder; [4]): 0.00795 µM; Ki (M3 muscarinic receptor; [6]): 12.4 nM; Receptor Binding Assay Selectivity (M3 muscarinic receptor; Table II, ratio M2 Ki / M3 Ki): 45.48; Ki (M3 muscarinic receptor; [8]): 11.5 nM
13 | O=C(N[C@H]1[C@@H]2CN(Cc3ccccc3)C[C@@H]21)C(O)(c1ccc(Oc2ccccc2)cc1)C1CCCCC1 (stereo partly drawn) [Compound No. 52, (1α,5α,6α)-6-N-(3-azabicyclo[3.1.0]hexyl-3-benzyl)-2-cyclohexyl-2-hydroxy-2-(4-phenoxyphenyl)acetamide] | > 1000 | 3.09 | 370 | 
14 | O=C(NC1C2CN(Cc3ccc(Br)cc3)CC21)C(O)(c1ccccc1)C1CCCCC1 (stereo not drawn) [Compound No. 24, (1α,5α,6α)-6-N-(3-azabicyclo[3.1.0]hexyl-3-(4-bromobenzyl))-2-cyclohexyl-2-hydroxy-2-phenyl acetamide] | > 1000 | 3.8 | 490 | 
15 | O=C(N[C@H]1[C@@H]2CN(C3CC3)C[C@@H]21)C(O)(c1ccccc1)C1CCCCC1 (stereo partly drawn) [Compound No. 38, (1α,5α,6α)-6-N-(3-azabicyclo[3.1.0]hexyl-3-cyclopropyl)-2-cyclohexyl-2-hydroxy-2-phenyl acetamide] | > 1000 | 0.288 | 1560 | 
16 | Cc1ccc(C(O)(C(=O)NC2C3CN(Cc4ccccc4)CC32)C2CCCCC2)cc1 (stereo not drawn) [Compound No. 50, (1α,5α,6α)-6-N-(3-azabicyclo[3.1.0]hexyl-3-benzyl)-2-cyclohexyl-2-hydroxy-2-(4-methylphenyl)acetamide] | > 1000 | 0.138 | 1200 | 
17 | O=C(NC1C2CN(CCc3ccccc3)CC21)C(O)(c1ccccc1)C1CCCC1 (stereo not drawn) [Compound No. 67, (1α,5α,6α)-6-N-(3-azabicyclo[3.1.0]hexyl-3-(2-phenylethyl))-2-cyclopentyl-2-hydroxy-2-phenyl acetamide] | 1420 | 0.038 |  | Ki (M3 muscarinic receptor; [8]): 38.9 nM
